Measured values from patent US9561249B2, “Pharmaceutical formulations of nitrite and uses thereof” (TheraVasc Inc., priority 2013, dated 2017).
Read-outs that look alike come from different tables or passages of the source.

Experiments:
subjects with PAD [1] = test system: subjects with PAD
Method: The primary objective of this early stage clinical study was to evaluate the safety and tolerability of multiple doses of twice daily 40 mg and 80 mg sodium nitrite compared with placebo over a 10 week treatment period. […] Finally, the relationship between doses, plasma concentration of sodium nitrite, and pharmacodynamic effects were characterized and evaluated. In this study, multiple assessments of biological activity and ambulatory function were made during standardized tests of arterial reactivity and claudication-limited exercise. The pharmacodynamic assessments included: brachial artery flow-mediated vasodilation (FMD), six-minute walk test, selected biomarkers of interest, quality of life questionnaires (WIQ & RAND 36).
All doses were given as a twice-daily oral dose for 10 weeks. On the day following the 10 week dosing period and completion of efficacy assessments, subjects in each treatment arm entered a 6 day dose-escalation period (dose-doubling). Subjects in the 40 mg sodium nitrite BID group were dose-escalated to 80 mg sodium nitrite BID for 6 days, and subjects in the 80 mg sodium nitrite BID were dose-escalated to 160 mg sodium nitrite BID for 6-days. Placebo subjects doubled the number of placebo capsules taken BID. All study medication was stopped at the end of the 6-day dose-escalation period.
(§1) The following safety parameters were assessed: medical and medication history, concomitant medication usage, physical examination, vital signs, 12-lead ECG, clinical chemistries, CBC, urinalysis, and adverse events. Urine pregnancy testing was completed for women of child-bearing potential who have not been surgically sterilized. Assessment of acute adverse events (i.e., drop in blood pressure, dizziness) was performed after administration of 1st dose for each dose level of sodium nitrite. Dose-limiting toxicity (DLT) was defined as Grade 3 and clinically significant hematological events, particularly MetHb.
As defined by the International Conference on Harmonisation (ICH), an AE was any untoward medical occurrence in a patient or clinical investigation subject administered an investigational product, whether or not the event was considered related to the investigational product. An AE was therefore any unfavorable and unintended sign (including an abnormal laboratory finding), symptom, or disease (new or exacerbated) temporally associated with the use of the investigational product and was collected starting when IP was administered.

subjects with PAD [2] = test system: subjects with PAD; remark: listed apart in the source
Method: A resting 12-lead ECG printout with the subject in supine position was obtained at the time points listed in Table 1-Schedule of Assessments. All ECGs were assessed by the PI or qualified designee for clinical significance of any abnormalities or changes and documented on the ECG source document. Any clinically significant abnormalities that occured after the first dose of sodium nitrite was recorded as AEs on the eCRF. The 12-lead ECG was obtained immediately following vitals, with the exception of the Visit 1 Randomization day ECG which was collected prior to dosing.

subjects with PAD [3] = test system: subjects with PAD; remark: listed apart in the source
Description: An individual subject was withdrawn at the discretion of the responsible investigator and the site study team for the reasons listed below as well as for other safety reasons that may not be listed. In the event one or more subjects were withdrawn, additional subjects were enrolled to ensure an adequate number of subjects complete the cohort. Specific reasons for an individual subject to withdraw included but was not limited to: • Subjects with a pattern of severe adverse events in any SOC, or cardiac monitoring findings as determined by the investigator and/or the sponsor. • Subjects with methemoglobin value 15% on any one occasion during study participation. • Subjects with normal baseline blood pressure who experienced any of the following: an increase in blood pressure to 160 mm Hg systolic and/or 90 mmHg diastolic that persists over 24 hours, an increase from baseline blood pressure of 30 mm Hg systolic and/or 15 mm Hg diastolic that persists over 24 hours, any symptomatic increase in blood pressure. • Subjects with stable elevated blood pressure at baseline who experienced any of the following: an increase in blood pressure to 180 mm Hg systolic and/or 100 mmHg diastolic that persists over 24 hours, an increase from baseline blood pressure of 20 mm Hg systolic and/or 10 mm Hg diastolic that persists over 24 hours, any symptomatic increase in blood pressure. • Subjects who experienced a decrease from baseline blood pressure of 20 mm Hg systolic with or without an increase of 10 beats per minute (BPM) pulse and the presence of symptoms.
The withdrawal criteria allowed a subject to withdraw from the study at any time at his/her own request. The subject may also have been withdrawn at the Investigator's request if it was the Investigator's opinion that it was not in the subject's best interest to continue in the study. The subject was withdrawn if he or she met stopping criteria described above. In the event a subject was withdrawn from the study for any reason, the subject was followed-up with reasonable effort made to determine the reason for their withdrawal from the study and an ET visit as described above. Telephone calls, certified letters and offers of transportation assistance were considered reasonable effort.

subjects with PAD [4] = details: even at the 160 mg dose escalation
Method: as §1

[5] = Six-Day Dose-Escalation Period Only, 40 mg group (escalated to 80 mg BID)
[6] = Six-Day Dose-Escalation Period Only, 80 mg group (escalated to 160 mg BID)
[7] = 40-mg, Visit 1 (prior to dosing)
[8] = 80-mg, Visit 1 (prior to dosing)
[9] = 80-mg, Visit 8 (after 6-day dose escalation)
[10] = 160-mg, Visit 8 (after 6-day dose escalation)

## O=NO [sodium nitrite]
Subjects with PAD [1]; 40 mg BID
  Number of TEAEs by Relationship to Study Drug: Not Related: 10
  Number of TEAEs by Relationship to Study Drug: Possibly Related: 22
  Number of TEAEs by Relationship to Study Drug: Probably Related: 0
  Number of TEAEs by Severity: Mild: 26
  Number of TEAEs by Severity: Moderate: 6
Subjects with PAD [1]; 80 mg BID
  Number of TEAEs by Relationship to Study Drug: Not Related: 9
  Number of TEAEs by Relationship to Study Drug: Possibly Related: 24
  Number of TEAEs by Relationship to Study Drug: Probably Related: 6
  Number of TEAEs by Severity: Mild: 31
  Number of TEAEs by Severity: Moderate: 8
Subjects with PAD [1]; Overall, 40 mg BID
  Number (%) of Subjects with at least one AE: 12(63.2%)
  Number (%) of Subjects with at least one TEAE: 12(63.2%)
  Number of AEs: 32
  Number of SAEs: 0
  Number of TEAEs: 32
Subjects with PAD [1]; Overall, 80 mg BID
  Number (%) of Subjects with at least one AE: 14(7738%)
  Number (%) of Subjects with at least one TEAE: 14(7738%)
  Number of AEs: 40
  Number of SAEs: 0
  Number of TEAEs: 39
Subjects with PAD [1]; [5]
  Number (5) of Subjects with at least one TEAE: 3(15.8%)
  Number of TEAEs: 3
Subjects with PAD [1]; [6]
  Number (5) of Subjects with at least one TEAE: 7(38.9%)
  Number of TEAEs: 11
Subjects with PAD [1]; treated groups overall
  Severe adverse effects: no severe adverse effects were observed
Subjects with PAD [2]; [7]
  ECG Heart Rate: 71.4 +/− 12.7 beats/minute
  QTcB interval: 415.9 ± 49.0 ms
  QTcF interval: 404.8 ± 44.9 ms
Subjects with PAD [2]; 40-mg, Visit 5 (Day 28)
  ECG Heart Rate: 72.2 +/− 14.8 beats/minute
  QTcB interval: 430.1 ± 34.8 ms
  QTcF interval: 417.7 ± 24.0 ms
Subjects with PAD [2]; [8]
  ECG Heart Rate: 62.7 +/− 10.7 beats/minute
  QTcB interval: 422.3 ± 34.0 ms
  QTcF interval: 419.9 ± 30.5 ms
Subjects with PAD [2]; 80-mg, Visit 5 (Day 28)
  ECG Heart Rate: 65.5 +/− 11.9 beats/minute
  QTcB interval: 411.6 ± 49.7 ms
  QTcF interval: 406.2 ± 46.2 ms
Subjects with PAD [2]; [9]
  ECG Heart Rate: 74.3 +/− 10.0 beats/minute
  QTcB interval: 423.2 ± 4.03 ms
  QTcF interval: 409.5 ± 34.3 ms
Subjects with PAD [2]; [10]
  ECG Heart Rate: 64.7 +/− 10.0 beats/minute
  QTcB interval: 427.7 ± 31.9 ms
  QTcF interval: 422.8 ± 27.9 ms
Subjects with PAD [3]; 40 mg, n = 19
  Subjects who completed the study: 17 (89.5%)
  Subjects who withdrew prior to completion: 2 (10.5%)
  Withdrawal: Adverse Event: 1 (5.3%)
  Withdrawal: Met withdrawal-new hypotension: 0 (0.0%)
  Withdrawal: Subject Request-lack of energy: 1 (5.3%)
  Withdrawal: Subject request- no benefit: 0 (0.0%)
  Withdrawal: Subject request-refused to continue: 0 (0.0%)
Subjects with PAD [3]; 80 mg, n = 18
  Subjects who completed the study: 15 (83.3%)
  Subjects who withdrew prior to completion: 3 (16.7%)
  Withdrawal: Adverse Event: 2 (11.1%)
  Withdrawal: Met withdrawal-new hypotension: 1 (5.6%)
  Withdrawal: Subject Request-lack of energy: 0 (0.0%)
  Withdrawal: Subject request- no benefit: 0 (0.0%)
  Withdrawal: Subject request-refused to continue: 0 (0.0%)
Subjects with PAD [4]
  Methemoglobin levels: of no concern
